Entries after “also recorded” stand apart in the source; their conditions may differ.
Experiments:
Assay type in all cases: cell-based, mouse
[1] = test system: intestinal stem cells (ISCs); test: ISC colony formation efficiency / ISC expansion in hydrogels; settings: for Expansion of Lgr5+ cells: supplement to standard intestinal organoid growth medium, PEG-RGD culture; for ISC colony formation, ECM component in combination with RGD / ISC colony formation / self-renewal, ECM component alone: component in soft (300 Pa) or stiff (1300 Pa) PEG matrices; for ISC colony formation / self-renewal, ECM component alone: without RGD
Protocol: Freshly isolated crypts or single cells from dissociated colonies were added to the Matrigel or hydrogels precursor solution and cast in 20-μL droplets at the bottom of wells in 24-well plate. […] For single cell culture, thiazovivin (2.5 μM; Stemgent) and Jagged-1 peptide ([…]; Anaspec) was included in the medium during the first two days. Broad spectrum protease inhibitor, GM6001, was added to the medium while embedding the cells in PEG hydrogels. Every two days the growth factors were replenished and the full medium was changed.
(§1) To quantify the colony formation efficiency of single embedded ISCs, phase contrast z-stacks spanning the entire thickness of the cell-laden Matrigel or PEG gels were collected (Zeiss Axio Observer Z1) at 5 different locations within the gels. The Cell Counter plugin in ImageJ (NIH) was used to quantify the fraction of cells which had formed colonies at day 4 after seeding. To assess the viability of intestinal tissue fragments embedded in PEG, phase contrast images of the entire gel were collected. The fraction of viable tissues was estimated based upon the epithelial morphology: tissues that featured an epithelial monolayer surrounding a central lumen after 24 h of embedding were deemed viable.

[2] = test system: Lgr5-EGFP; test: Lgr5-EGFP reporter expression in colonies and organoids; settings: cultured in the presence of collagen-I
From the text: Lgr5-EGFP was expressed in the expected pattern, localized to the crypt-like buds of the organoids (FIG. 3B). […] Stem cell differentiation into functional cell types was confirmed by immunofluorescence analysis. Staining for lysozyme verified the presence of Paneth cells in the expected locations, interspersed with Lgr5+ stem cells in the characteristic checkerboard pattern (FIG. 3F). The organoids therefore retained the normal characteristics of epithelial cell organoids during culture in the hydrogels.
Intestinal crypts were extracted from 5-10 week old heterozygous Lgr5-EGFP-IRES-CreERT2 mice (Jackson Laboratory), following animal experimentation protocols prescribed by EPFL and FELASA.

[3] = test system: ISC colonies; test: ISC colony differentiation and intestinal organoid formation; settings: for ISC colony differentiation and organoid formation in soft PEG-RGD gels supplied with an ECM component: colonies grown in 1 kPa PEG-RGD, transferred into soft F-PEG-RGD, differentiation conditions; for Organoid formation from ISCs grown in soft laminin-containing gels: after switching to organoid formation conditions
Protocol: To induce stem cell differentiation and organoid formation, the medium was removed, the gels were incubated in PBS (1 hr, […]) to remove residual CHIR99021 and valproic acid, and fresh medium containing EGF, Noggin and Respondin was added. In general, growth factors were replenished every two days, with full medium change taking place every four days.
Intestinal organoids embedded in Matrigel or PEG were fixed with 4% paraformaldehyde (PFA) in PBS (30 min, RT). The fixation process typically led to complete degradation of the Matrigel. […] Following resuspension in water, the organoids were spread on glass slides and allowed to attach by drying. Attached organoids were rehydrated by adding PBS. Following fixation, organoids embedded in PEG or spread on glass were permeabilized with 0.2% Triton X-100 in PBS (1 h, RT) and blocked (10% goat serum in PBS containing 0.01% Triton X-100) for at least 2 h. Samples were subsequently incubated with blocking buffer-dissolved phalloidin-Alexa 546 (Invitrogen) and primary antibodies against lysozyme (1:50; Thermo Scientific) or mucin-2 (1:25; Santa Cruz) (overnight, 4° C.). After washing with PBS for 3 h (during which PBS was replaced every hour), samples were incubated with secondary antibody (Alexa 647) organoids were imaged in epifluorescence (Zeiss Axio Observer Z1) or confocal (Zeiss LSM 710) mode.

[4] = test system: freshly-isolated intestinal crypts; test: Survival and morphogenesis of freshly isolated intestinal crypts embedded in 3D matrices; settings: component presented alongside RGD in PEG-RGD hydrogel
From the text: Matrigel is currently used to grow epithelial organoids. To address the question of whether Matrigel serves as merely a passive 3D scaffold, providing physical support, or actively influences organoid formation by presenting essential cues, freshly-isolated intestinal crypts were embedded into enzymatically crosslinked PEG hydrogels, which are soft and hydrated and thus mimic the basic physical properties of Matrigel without providing any biochemical signals.
Intestinal crypt isolation: Mouse intestine crypts were isolated following procedures known in the art. Briefly, the proximal part of the intestine was harvested, opened longitudinally and washed with ice-cold PBS. The luminal side of the intestine was scraped using a glass slide to remove luminal content and villous structures. After washing with ice-cold PBS again, the intestine was cut into 2-4 mm pieces with scissors. The pieces were transferred to a 50 ml Falcon tube and further washed with cold PBS (5-10 times) with gentle vortexing. […]
To quantify the colony formation efficiency of single embedded ISCs, phase contrast z-stacks spanning the entire thickness of the cell-laden Matrigel or PEG gels were collected (Zeiss Axio Observer Z1) at 5 different locations within the gels. The Cell Counter plugin in ImageJ (NIH) was used to quantify the fraction of cells which had formed colonies at day 4 after seeding. […]

[5] = test system: intestinal organoids; test: Viability, growth and morphogenesis of intestinal organoids / tissue fragments in hydrogels
From the text: To identify a short sequence that supports intestinal cell survival, a library of soft (G′=200 Pa) hydrogels was created, in which specific binding sequences from the laminin al subunit (Table 1) were tethered to the PEG backbone.
as §1

## Cc1c[nH]c(-c2cnc(NCCNc3ccc(C#N)cn3)nc2-c2ccc(Cl)cc2Cl)n1 [CHIR99021, reference compound]
[1]
  Expansion of Lgr5+ cells: increased

## CNC(=O)[C@H](Cc1c[nH]c2ccccc12)NC(=O)[C@@H](CC(=O)NO)CC(C)C [GM6001, reference compound]
[1]; printed: within non-degradable gels, high stiffness
  Colony formation efficiency on blocking MMP activity, high matrix stiffness: reduced it to levels observed in non-degradable gels
[1]; printed: within non-degradable gels, low stiffness
  Colony formation efficiency on blocking MMP activity, low matrix stiffness: did not alter colony formation efficiency

## Cc1ccc2c(c1)C(=O)C1(O)CCN(c3ccccc3)C1=N2 (stereo not drawn) [blebbistatin, reference compound]
[1]; PEG-RGD matrices of varying stiffness
  Effect of blocking myosin-mediated contractility on colony formation efficiency: abolished the stiffness-induced increase in colony formation efficiency

## CCCC(CCC)C(=O)O [valproic acid, reference compound]
[1]
  Expansion of Lgr5+ cells: increased

## Arginine-Glycine-Aspartic Acid [RGD, reference compound]
[1]; RGD-containing gels of varying stiffness
  Shear modulus at which ISC expansion / colony formation efficiency is optimal: 1.3 kPa
[1]; TG-PEG-RGD, varying RGD
  RGD concentration at which ISC colony formation efficiency reached a plateau: approximately 500 μM

## Collagen-I: ECM component incorporated in PEG hydrogels
[1]
  ISC colony formation, ECM component in combination with RGD: did not have a striking effect
[1]; soft hydrogels with collagen-I and RGD
  ISC morphology: adopted a spindle-like morphology
[2]
  Lgr5-EGFP in viable cells and colonies: largely devoid of Lgr5-EGFP

## Fibronectin
[1]
  ISC colony formation, ECM component in combination with RGD: no added effect
  ISC colony formation / self-renewal, ECM component alone: appreciable colony formation only in stiff matrices
[3]
  ISC colony differentiation and organoid formation in soft PEG-RGD gels supplied with an ECM component: failed to support ISC colony differentiation and organoid formation

## Hyaluronic acid [reference compound]
[4]
  Crypt viability: synergistic increase in crypt viability
[1]
  ISC colony formation, ECM component in combination with RGD: did not appear to influence
[3]
  ISC colony differentiation and organoid formation in soft PEG-RGD gels supplied with an ECM component: failed to support ISC colony differentiation and organoid formation

## Laminin-111: extracellular matrix glycoprotein, heterotrimer of α, β and γ chain
[1]
  ISC colony formation, ECM component in combination with RGD: increased colony formation efficiency
  ISC colony formation / self-renewal, ECM component alone: effectively supported colony formation in soft matrices; also recorded: supports ISC colony formation within soft matrices
[1]; laminin-containing gels
  Stiffness at which ISC colony formation efficiency peaks: 700 Pa
[1]; soft hydrogels containing both RGD and laminin-111
  ISC colony formation: 30-50%
[1]; soft, 300 Pa hydrogel
  Efficiency in inducing ISC colony formation compared with RGD: significantly more efficient
[3]; listed as laminin
  Organoid formation from ISCs grown in soft laminin-containing gels: give rise to organoids
[3]; listed as laminin-111
  Organoid formation from ISCs grown in soft laminin-containing gels: a small portion of the ISC colonies gave rise to intestinal organoids
[3]
  ISC colony differentiation and organoid formation in soft PEG-RGD gels supplied with an ECM component: pronounced morphogenesis and organoid formation; also recorded: required for organoid formation

## Perlecan: ECM component incorporated in PEG hydrogels
[1]
  ISC colony formation, ECM component in combination with RGD: starkly increased colony formation efficiency
  ISC colony formation / self-renewal, ECM component alone: did not alter ISC self-renewal
[3]
  ISC colony differentiation and organoid formation in soft PEG-RGD gels supplied with an ECM component: failed to support ISC colony differentiation and organoid formation

## RKRLQVQLSIRT [AG73, synthetic peptide derived from the globular domain of the laminin al chain]
[4]
  Crypt viability: synergistic increase in crypt viability
[5]; soft (G'=200 Pa) PEG hydrogels with tethered laminin a1 subunit binding sequences
  Organoid viability: significantly enhanced organoid viability
[5]; varying amount of AG73 tethered to PEG gel backbone
  Effect of amount of tethered AG73 on organoid viability and growth: dose-dependent effect; also recorded: concentration-dependent
[3]
  ISC colony differentiation and organoid formation in soft PEG-RGD gels supplied with an ECM component: showed some early signs of differentiation and morphogenesis; also recorded: failed to support ISC colony differentiation and organoid formation

## laminin-511: ECM component incorporated in PEG hydrogels
[1]
  ISC colony formation, ECM component in combination with RGD: no effect
  ISC colony formation / self-renewal, ECM component alone: no effect

From US10934529B2, “Three dimensional hydrogels for culturing organoids” (Ecole Polytechnique Fèdèrale de Lausanne, priority 2015, dated 2021)
